These results are taken from patent US5049694A, “Pharmaceutical composition having relaxing activity which contains a nitrate ester as active substance” (Cedona Pharmaceuticals B.V., priority 1988, dated 1991).

Like-named read-outs stand apart in the source and are kept apart here.

In data set [1] the test system is contracted strips of the rats' arota. The data set is described as follows: relaxing potency in vitro on phenylefrine-contracted strips of rat aorta. It is filed as cell-based, rat (male Wistar). The note with it: read-out: EC50 (concentration with which relaxation took place up to 50% of the contraction induced by 10^-7 M phenylefrine). On the procedure: The relaxing potency of the compounds as described is tested in vitro on contracted strips of the rats' arota. Male Wistar rates (200-220 g) are killed by decapitation. The thoracal aorta is removed and is helically cut into strips (length: ±10 mm, width: ±2 mm; 4 strips per rat).
The strips are suspended in organ baths filled with 20 ml of Krebs' medium with a constant temperature of 37° C. passing through O2 /CO2 (95/5) and subsequently for 2 h equilibrated under an isotonic load of 500 mg. The medium is renewed every 20 minutes.
After equilibration contraction takes place by addition of 10^-7M phenylefrine to the medium. After reaching the maximal contraction the composition with the organic nitrate ester to be tested in cumulative concentration steps is relaxed.
The degree of relaxation is expressed as a percentage of the maximal contraction (=100%) reached with 10^-7 M phenylefrine. The relaxing potency of the tested compounds is expressed as the EC50 : the concentration with which relaxation took place up to 50% of the contraction induced by 10^-7 M phenylefrine. From a number of compounds the EC50 -values have been stated in Table 1. For comparison the EC50 -values of glyceryltrinitrate and isosorbidedinitrate have also been included.

Another data set concerns heart. The note with it: therapeutical use; cited from earlier work.
For data set [2] the following is noted: chronical administration, clinical; cited from earlier work.

As to `O=[N+]([O-])OCCc1ccccc1` [Compound 1, 2-phenylethanol nitrate], the EC50 in data set [1] stood at 120 nM.

On to `O=[N+]([O-])OCCc1cccc2ccccc12` [Compound 9, 2-(1-naphthyl)ethanol nitrate], for which the EC50 in data set [1] (Rattus norvegicus) amounted to 4.2 nM.

As to `O=[N+]([O-])OCC(CO[N+](=O)[O-])c1ccc2ccccc2c1` [Compound 10, 2-(2-naphthyl)-1,3-propanediol nitrate], the EC50 in data set [1] (Rattus norvegicus) was 13 nM.

For the compound `O=[N+]([O-])OCCc1ccc(CCO[N+](=O)[O-])cc1` [Compound 11, 1,4-bis(2-nitroxyethyl)benzene], in data set [1] (Rattus norvegicus), the EC50 amounted to 4.6 nM.

Turning to `Cc1c(C)c(CCO[N+](=O)[O-])c(C)c(C)c1CCO[N+](=O)[O-]` [Compound 12, 1,4-bis(2-nitroxyethyl)-2,3,5,6-tetramethylbenzene], the EC50 in data set [1] (Rattus norvegicus) turned out to be 78 nM.

With `O=[N+]([O-])OC(Cc1ccccc1)Cc1ccccc1` [Compound 23, 1,3-diphenyl-2-propanol nitrate], the EC50 in data set [1] (Rattus norvegicus) is 400 nM.

In the case of `O=[N+]([O-])OCCOC(c1ccccc1)c1ccccc1` [Compound 25, 2-diphenylmethoxyethanol nitrate], the EC50 in data set [1] (Rattus norvegicus) was 250 nM.

Regarding `O=[N+]([O-])O[C@@H]1CO[C@H]2[C@@H]1OC[C@@H]2OC(c1ccccc1)c1ccccc1` [Compound 28, 2-diphenylmethyl-1,4:3,6-dianhydroglucitol nitrate], the EC50 in data set [1] (Rattus norvegicus) came out at 200 nM.

Take `O=[N+]([O-])OCC(CO[N+](=O)[O-])O[N+](=O)[O-]` [glyceryl trinitrate]: in the data set with heart, the “need of oxygen to the heart” value was “lower need of oxygen to the heart”; the “post-load of the heart” value is listed as “also affected, be it to a lower extent”; the “pre-load of the heart” value is recorded as “diminish especially the pre-load of the heart”. In addition, the EC50 in data set [1] (rat thoracal aorta strips, contracted with 10^-7 M phenylefrine, cumulative concentrations, 37° C.) was 7.3 nM. The development of tolerance entry in data set [2] is listed as “development of so-called tolerance”.
